According to PubChem BioAssay (NCI):
Where “and” joins values, the source holds several entries; their conditions need not be identical. Equal entries are not always repeated.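 Test compounds were applied to cells in 96-well plates for 48 hours at 5 doses. GI50 marks 50% less growth. TGI marks complete inhibition of growth.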

Key:
Assay in all cases: NCI anticancer screen, dose series, 48 h
SK-MEL-28 melanoma = system: SK-MEL-28 melanoma
NCI-H226 lung = system: NCI-H226 lung
M19-MEL melanoma = system: M19-MEL melanoma
SW-620 colon = system: SW-620 colon
SNB-78 CNS = system: SNB-78 CNS
SK-MEL-5 melanoma = system: SK-MEL-5 melanoma
DU-145 prostate = system: DU-145 prostate
LXFL 529 NSCLC = system: LXFL 529 NSCLC
XF 498 CNS = system: XF 498 CNS
SN12C renal = system: SN12C renal
HCT-116 colon = system: HCT-116 colon
MDA-MB-231 breast = system: MDA-MB-231 breast
CCRF-CEM leukemia = system: CCRF-CEM leukemia
SK-OV-3 ovarian = system: SK-OV-3 ovarian
HCC-2998 colon = system: HCC-2998 colon
SF-268 CNS = system: SF-268 CNS
UACC-62 melanoma = system: UACC-62 melanoma
NCI-H23 lung = system: NCI-H23 lung
MDA-N = system: MDA-N
HS 578T breast = system: HS 578T breast
COLO 205 colon = system: COLO 205 colon
SK-MEL-2 melanoma = system: SK-MEL-2 melanoma
SF-539 CNS = system: SF-539 CNS
UACC-257 melanoma = system: UACC-257 melanoma
KM20L2 colon = system: KM20L2 colon
OVCAR-4 ovarian = system: OVCAR-4 ovarian
K-562 leukemia = system: K-562 leukemia
ACHN renal = system: ACHN renal
MCF7 breast = system: MCF7 breast
HT29 colon = system: HT29 colon
M14 melanoma = system: M14 melanoma
DMS 114 small cell lung = system: DMS 114 small cell lung
A549 NSCLC = system: A549 NSCLC
MDA-MB-435 = system: MDA-MB-435
HL-60(TB) leukemia = system: HL-60(TB) leukemia

Question: With CCC(=O)OC1CCn2c1nc1c2C(=O)C(C)=C(N2CC2)C1=O (configuration not stated) as the molecule, how does the TGI (SK-MEL-28 melanoma) read?
Answer: The TGI was 318 nM and 215 nM.

Question: What about the GI50 (NCI-H226 lung) of the same molecule?
Answer: The GI50 was 186 nM.

Question: And the TGI (NCI-H226 lung)?
Answer: The TGI was 441 nM and 319 nM.

Question: And the TGI (M19-MEL melanoma)?
Answer: The TGI was 345 nM.

Question: And the GI50 (SW-620 colon)?
Answer: The GI50 was 24.8 nM.

Question: What about the TGI (SW-620 colon) of the same molecule?
Answer: Its TGI is 244 nM and 130 nM.

Question: And the TGI (SNB-78 CNS)?
Answer: The TGI was 1410 nM.

Question: And the GI50 (SK-MEL-5 melanoma)?
Answer: Its GI50 is 165 nM.

Question: What about the TGI (SK-MEL-5 melanoma) of the same molecule?
Answer: The TGI was 76.5 nM and 319 nM.

Question: What about the TGI (DU-145 prostate) of the same molecule?
Answer: Its TGI is 50.3 nM.

Question: And the TGI (LXFL 529 NSCLC)?
Answer: Its TGI is 350 nM.

Question: And the TGI (XF 498 CNS)?
Answer: The TGI was 97.3 nM.

Question: What about the GI50 (SN12C renal) of the same molecule?
Answer: Its GI50 is 28.5 nM.

Question: What about the TGI (SN12C renal) of the same molecule?
Answer: Its TGI is 119 nM and 333 nM.

Question: What about the GI50 (HCT-116 colon) of the same molecule?
Answer: The GI50 was 22.9 nM.

Question: What about the TGI (HCT-116 colon) of the same molecule?
Answer: The TGI was 779 nM and 409 nM.

Question: What about the TGI (MDA-MB-231 breast) of the same molecule?
Answer: Its TGI is 3320 nM.

Question: And the GI50 (CCRF-CEM leukemia)?
Answer: Its GI50 is 523 nM.

Question: What about the TGI (CCRF-CEM leukemia) of the same molecule?
Answer: The TGI was 3850 nM and 21800 nM.

Question: And the GI50 (SK-OV-3 ovarian)?
Answer: The GI50 was 40.7 nM.

Question: And the TGI (SK-OV-3 ovarian)?
Answer: The TGI was 255 nM and 283 nM.

Question: And the TGI (HCC-2998 colon)?
Answer: Its TGI is 214 nM and 180 nM.

Question: What about the GI50 (SF-268 CNS) of the same molecule?
Answer: The GI50 was 30.9 nM.

Question: What about the TGI (SF-268 CNS) of the same molecule?
Answer: The TGI was 1220 nM and 254 nM.

Question: And the GI50 (UACC-62 melanoma)?
Answer: The GI50 was 23.1 nM.

Question: What about the TGI (UACC-62 melanoma) of the same molecule?
Answer: The TGI was 57.7 nM and 127 nM.

Question: And the GI50 (NCI-H23 lung)?
Answer: Its GI50 is 23.5 nM.

Question: What about the TGI (NCI-H23 lung) of the same molecule?
Answer: The TGI was 82.1 nM and 94.8 nM.

Question: And the TGI (MDA-N)?
Answer: Its TGI is 181 nM.

Question: And the TGI (HS 578T breast)?
Answer: Its TGI is 780 nM.

Question: And the GI50 (COLO 205 colon)?
Answer: Its GI50 is 101 nM.

Question: What about the TGI (COLO 205 colon) of the same molecule?
Answer: Its TGI is 235 nM and 561 nM.

Question: What about the GI50 (SK-MEL-2 melanoma) of the same molecule?
Answer: Its GI50 is 38 nM.

Question: And the TGI (SK-MEL-2 melanoma)?
Answer: Its TGI is 100 nM and 117 nM.

Question: And the GI50 (SF-539 CNS)?
Answer: The GI50 was 13.8 nM.

Question: What about the GI50 (UACC-257 melanoma) of the same molecule?
Answer: Its GI50 is 26.1 nM.

Question: What about the TGI (UACC-257 melanoma) of the same molecule?
Answer: Its TGI is 62.9 nM and 152 nM.

Question: What about the TGI (KM20L2 colon) of the same molecule?
Answer: Its TGI is 831 nM.

Question: And the GI50 (OVCAR-4 ovarian)?
Answer: The GI50 was 293 nM.

Question: What about the TGI (OVCAR-4 ovarian) of the same molecule?
Answer: Its TGI is 291 nM and 667 nM.

Question: And the GI50 (K-562 leukemia)?
Answer: Its GI50 is 128 nM and 739 nM.

Question: And the GI50 (ACHN renal)?
Answer: The GI50 was 19.5 nM.

Question: What about the TGI (ACHN renal) of the same molecule?
Answer: The TGI was 49.1 nM and 411 nM.

Question: And the TGI (MCF7 breast)?
Answer: Its TGI is 56.9 nM.

Question: What about the TGI (HT29 colon) of the same molecule?
Answer: Its TGI is 1090 nM and 495 nM.

Question: What about the GI50 (M14 melanoma) of the same molecule?
Answer: The GI50 was 18.5 nM.

Question: What about the TGI (M14 melanoma) of the same molecule?
Answer: Its TGI is 43.6 nM and 141 nM.

Question: And the TGI (DMS 114 small cell lung)?
Answer: The TGI was 522 nM.

Question: What about the GI50 (A549 NSCLC) of the same molecule?
Answer: Its GI50 is 23.3 nM.

Question: What about the TGI (MDA-MB-435) of the same molecule?
Answer: The TGI was 92.2 nM.

Question: What about the GI50 (HL-60(TB) leukemia) of the same molecule?
Answer: The GI50 was 169 nM.

Question: And the TGI (HL-60(TB) leukemia)?
Answer: The TGI was 432 nM and 2630 nM.
